Test results: patent US20240092784A1, “CONDENSED HETEROCYCLIC COMPOUND” (NISSAN CHEMICAL CORPORATION, priority 2020, published 2024)
Structures can show the parent of a compound that is named as a salt.

Molecular target: human SPR (Homo sapiens (Human), UniProt P35270)
Assay: Evaluation Example 2: Measurement of human SPR inhibitory activity (seven concentrations, sepiapterin absorbance at 420 nm)
Assay type: biochemical
Conditions: Evaluation Example 2, seven concentrations 0.14 nM to 100 nM, 240 minutes at room temperature, read-out: IC50
Outline: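 His-tagged full-length human SPR (1-261) was expressed in E. coli and the tag removed. Enzyme at 150 ng/mL in 100 mM Tris-HCl pH 7.5/0.01% BSA was mixed with compound (0.14–100 nM, seven points), 120 μM sepiapterin and 160 μM NADPH, both as added-solution concentrations. After 240 min at room temperature, remaining sepiapterin was read at 420 nm to give percent inhibition.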

Sequence of human SPR (P35270 whole entry): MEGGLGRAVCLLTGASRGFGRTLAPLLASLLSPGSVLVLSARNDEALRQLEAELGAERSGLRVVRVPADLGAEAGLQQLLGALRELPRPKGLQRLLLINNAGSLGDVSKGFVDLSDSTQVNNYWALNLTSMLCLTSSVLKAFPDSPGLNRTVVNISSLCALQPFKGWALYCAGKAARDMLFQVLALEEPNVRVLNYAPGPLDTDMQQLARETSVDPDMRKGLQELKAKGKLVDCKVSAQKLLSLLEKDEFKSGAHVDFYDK

SMILES | IC50
CC(C)(C)Cn1c(=O)c(C(=O)NC2CC2)c(O)n2nc(-c3cc(F)cnc3N)cc12 [Synthesis Example 285, 2-(2-Amino-5-fluoropyridin-3-yl)-N-cyclopropyl-7-hydroxy-4-neopentyl-5-oxo-4,5-dihydropyrazolo[1,5-a]pyrimidine-6-carboxamide] | 3.28 nM
CC(C)(C)Cn1c(=O)c(C(=O)NC2CC2)c(O)n2nc(-c3cn[nH]c3)cc12 [Synthesis Example 286, N-Cyclopropyl-7-hydroxy-4-neopentyl-5-oxo-2-(1H-pyrazol-4-yl)-4,5-dihydropyrazolo[1,5-a]pyrimidine-6-carboxamide] | 1.54 nM
Cc1cn[nH]c1-c1cc2n(CC(C)(C)C)c(=O)c(C(=O)NC3CC3)c(O)n2n1 [Synthesis Example 287, N-Cyclopropyl-7-hydroxy-2-(4-methyl-1H-pyrazol-5-yl)-4-neopentyl-5-oxo-4,5-dihydropyrazolo[1,5-a]pyrimidine-6-carboxamide] | 2.53 nM
CC(C)(C)Cn1c(=O)c(C(=O)NC2CC2)c(O)n2nc(-c3cncnc3)cc12 [Synthesis Example 288, N-Cyclopropyl-7-hydroxy-4-neopentyl-5-oxo-2-(pyrimidin-5-yl)-4,5-dihydropyrazolo[1,5-a]pyrimidine-6-carboxamide] | 1.37 nM
CC(C)(C)Cn1c(=O)c(C(=O)NC2CC2)c(O)n2nc(-c3cnc(N)nc3)cc12 [Synthesis Example 289, 2-(2-Aminopyrimidin-5-yl)-N-cyclopropyl-7-hydroxy-4-neopentyl-5-oxo-4,5-dihydropyrazolo[1,5-a]pyrimidine-6-carboxamide] | 2.05 nM
Nc1ncccc1-c1cc2n(CC3CCOCC3)c(=O)c(C(=O)NC3CC3)c(O)n2n1 [Synthesis Example 290, 2-(2-Aminopyridin-3-yl)-N-cyclopropyl-7-hydroxy-5-oxo-4-((tetrahydro-2H-pyran-4-yl)methyl)-4,5-dihydropyrazolo[1,5-a]pyrimidine-6-carboxamide] | 0.93 nM
CC(C)(C)Cn1c(=O)c(C(=O)NC2CC2)c(O)n2nc(-c3cc(C#N)cnc3N)cc12 [Synthesis Example 291, 2-(2-Amino-5-cyanopyridin-3-yl)-N-cyclopropyl-7-hydroxy-4-neopentyl-5-oxo-4,5-dihydropyrazolo[1,5-a]pyrimidine-6-carboxamide] | 6.42 nM
CC(C)(C)Cn1c(=O)c(C(=O)NC2CC2)c(O)n2nc(-c3n[nH]cc3C#N)cc12 [Synthesis Example 292, 2-(4-Cyano-1H-pyrazol-3-yl)-N-cyclopropyl-7-hydroxy-4-neopentyl-5-oxo-4,5-dihydropyrazolo[1,5-a]pyrimidine-6-carboxamide] | 1.32 nM
CC(C)(C)Cn1c(=O)c(C(=O)NC2CC2)c(O)n2nc(-c3cccnc3C#N)cc12 [Synthesis Example 293, 2-(2-Cyanopyridin-3-yl)-N-cyclopropyl-7-hydroxy-4-neopentyl-5-oxo-4,5-dihydropyrazolo[1,5-a]pyrimidine-6-carboxamide] | 2.24 nM
CC(C)(C)Cn1c(=O)c(C(=O)NC2CC2)c(O)n2nc(-c3cnccc3C#N)cc12 [Synthesis Example 294, 2-(4-Cyanopyridin-3-yl)-N-cyclopropyl-7-hydroxy-4-neopentyl-5-oxo-4,5-dihydropyrazolo[1,5-a]pyrimidine-6-carboxamide] | 2.26 nM
CC(C)(C)Cn1c(=O)c(C(=O)NC2CC2)c(O)n2nc(-c3cnccc3F)cc12 [Synthesis Example 295, N-Cyclopropyl-2-(4-fluoropyridin-3-yl)-7-hydroxy-4-neopentyl-5-oxo-4,5-dihydropyrazolo[1,5-a]pyrimidine-6-carboxamide] | 2.48 nM
CC(C)(C)Cn1c(=O)c(C(=O)NC2CC2)c(O)n2nc(-c3cc(C#N)n[nH]3)cc12 [Synthesis Example 296, 2-(3-Cyano-1H-pyrazol-5-yl)-N-cyclopropyl-7-hydroxy-4-neopentyl-5-oxo-4,5-dihydropyrazolo[1,5-a]pyrimidine-6-carboxamide] | 2.93 nM
CC(C)(C)Cn1c(=O)c(C(=O)NC2CC2)c(O)n2nc(-c3cccnc3C(F)F)cc12 [Synthesis Example 297, N-Cyclopropyl-2-(2-(difluoromethyl)pyridin-3-yl)-7-hydroxy-4-neopentyl-5-oxo-4,5-dihydropyrazolo[1,5-a]pyrimidine-6-carboxamide] | 3.32 nM
CC(C)(C)Cn1c(=O)c(C(=O)NC2CC2)c(O)n2nc(-c3n[nH]cc3C(F)(F)F)cc12 [Synthesis Example 298, N-Cyclopropyl-7-hydroxy-4-neopentyl-5-oxo-2-(4-(trifluoromethyl)-1H-pyrazol-3-yl)-4,5-dihydropyrazolo[1,5-a]pyrimidine-6-carboxamide] | 3.11 nM
CC(C)(C)Cn1c(=O)c(C(=O)NC2CC2)c(O)n2nc(-c3ccccn3)cc12 [Synthesis Example 299, N-Cyclopropyl-7-hydroxy-4-neopentyl-5-oxo-2-(pyridin-2-yl)-4,5-dihydropyrazolo[1,5-a]pyrimidine-6-carboxamide] | 6.43 nM
COc1cnc(-c2cc3n(CC(C)(C)C)c(=O)c(C(=O)NC4CC4)c(O)n3n2)cn1 [Synthesis Example 300, N-Cyclopropyl-7-hydroxy-2-(5-methoxypyrazin-2-yl)-4-neopentyl-5-oxo-4,5-dihydropyrazolo[1,5-a]pyrimidine-6-carboxamide] | 9.44 nM
CC(C)(C)Cn1c(=O)c(C(=O)NC2CC2)c(O)n2nc(-c3cn[nH]c3C#N)cc12 [Synthesis Example 301] | 1.22 nM
CC(C)(C)Cn1c(=O)c(C(=O)NC2CC2)c(O)n2nc(-c3cnccn3)cc12 [Synthesis Example 302, N-Cyclopropyl-7-hydroxy-4-neopentyl-5-oxo-2-(pyrazin-2-yl)-4,5-dihydropyrazolo[1,5-a]pyrimidine-6-carboxamide] | 2.69 nM
Cc1cnc(-c2cc3n(CC(C)(C)C)c(=O)c(C(=O)NC4CC4)c(O)n3n2)cn1 [Synthesis Example 303, N-Cyclopropyl-7-hydroxy-2-(5-methylpyrazin-2-yl)-4-neopentyl-5-oxo-4,5-dihydropyrazolo[1,5-a]pyrimidine-6-carboxamide] | 2.58 nM
CC(C)(C)Cn1c(=O)c(C(=O)NC2CC2)c(O)n2nc(-c3cnc(F)cn3)cc12 [Synthesis Example 304, N-Cyclopropyl-2-(5-fluoropyrazin-2-yl)-7-hydroxy-4-neopentyl-5-oxo-4,5-dihydropyrazolo[1,5-a]pyrimidine-6-carboxamide] | 3 nM
CC(C)(C)Cn1c(=O)c(C(=O)NC2CC2)c(O)n2nc(-c3[nH]ncc3Cl)cc12 [Synthesis Example 305, 2-(4-Chloro-1H-pyrazol-5-yl)-N-cyclopropyl-7-hydroxy-4-neopentyl-5-oxo-4,5-dihydropyrazolo[1,5-a]pyrimidine-6-carboxamide] | 2.24 nM
CC(C)(C)Cn1c(=O)c(C(=O)NC2CC2)c(O)n2nc(-c3n[nH]c4ncccc34)cc12 [Synthesis Example 306] | 9.43 nM
CC(C)(C)Cn1c(=O)c(C(=O)NC2CC2)c(O)n2nc(-c3n[nH]c4ccncc34)cc12 [Synthesis Example 307, N-Cyclopropyl-7-hydroxy-4-neopentyl-5-oxo-2-(1H-pyrazolo[4,3-c]pyridin-3-yl 4,5-dihydropyrazolo[1,5-a]pyrimidine-6-carboxamide hydrochloride] | 3.03 nM
CNc1ccncc1-c1cc2n(CC(C)(C)C)c(=O)c(C(=O)NC3CC3)c(O)n2n1 [Synthesis Example 308, N-Cyclopropyl-7-hydroxy-2-(4-(methylamino)pyridin-3-yl)-4-neopentyl-5-oxo-4,5-dihydropyrazolo[1,5-a]pyrimidine-6-carboxamide] | 3.6 nM
CNc1ncccc1-c1cc2n(CC(C)(C)C)c(=O)c(C(=O)NC3CC3)c(O)n2n1 [Synthesis Example 309, N-Cyclopropyl-7-hydroxy-2-(2-(methylamino)pyridin-3-yl)-4-neopentyl-5-oxo-4,5-dihydropyrazolo[1,5-a]pyrimidine-6-carboxamide] | 22.9 nM
Cn1cc(-c2cc3n(CC(C)(C)C)c(=O)c(C(=O)NC4CC4)c(O)n3n2)c(C(N)=O)n1 [Synthesis Example 310, 2-(3-Carbamoyl-1-methyl-1H-pyrazol-4-yl)-N-cyclopropyl-7-hydroxy-4-neopentyl-5-oxo-4,5-dihydropyrazolo[1,5-a]pyrimidine-6-carboxamide] | 2.47 nM
CC(C)(C)Cn1c(=O)c(C(=O)NC2CC2)c(O)n2nc(-c3[nH]ncc3C(=O)N3CCOCC3)cc12 [Synthesis Example 311, N-Cyclopropyl-7-hydroxy-2-(4-(morpholine-4-carbonyl)-1H-pyrazol-5-yl)-4-neopentyl-5-oxo-4,5-dihydropyrazolo[1,5-a]pyrimidine-6-carboxamide] | 1.21 nM
CC(C)(C)Cn1c(=O)c(C(=O)NC2CC2)c(O)n2nc(-c3c[nH]nc3C(N)=O)cc12 [Synthesis Example 312, 2-(3-Carbamoyl-1H-pyrazol-4-yl)-N-cyclopropyl-7-hydroxy-4-neopentyl-5-oxo-4,5-dihydropyrazolo[1,5-a]pyrimidine-6-carboxamide] | 1.3 nM
CC(C)(C)Cn1c(=O)c(C(=O)NC2CC2)c(O)n2nc(-c3[nH]ncc3C(=O)N3CCC(F)(F)CC3)cc12 [Synthesis Example 313, N-Cyclopropyl-2-(4-(4,4-difluoropiperidine-1-carbonyl)-1H-pyrazol-5-yl)-7-hydroxy-4-neopentyl-5-oxo-4,5-dihydropyrazolo[1,5-a]pyrimidine-6-carboxamide hydrochloride] | 1.15 nM
CN(C)C(=O)c1cn[nH]c1-c1cc2n(CC(C)(C)C)c(=O)c(C(=O)NC3CC3)c(O)n2n1 [Synthesis Example 314, N-Cyclopropyl-2-(4-(dimethylcarbamoyl)-1H-pyrazol-5-yl)-7-hydroxy-4-neopentyl-5-oxo-4,5-dihydropyrazolo[1,5-a]pyrimidine-6-carboxamide hydrochloride] | 0.93 nM
